# Values quoted from earlier work as cited in publication PMC8004929, “Whole-Body Pharmacokinetics and Physiologically Based Pharmacokinetic Model for Monomethyl Auristatin E (MMAE)” (Journal of Clinical Medicine, 2021).
# Where two headings read alike, the source gives them in different places. Square brackets hold non-standard residues; d marks the D form. Peptide text beside a SMILES is read from it. * marks the point of attachment. Dolaproine = CO[C@@H]([C@@H]1CCCN1)[C@@H](C)C(=O)O; Dil = CC[C@H](C)[C@H](NC)[C@@H](CC(=O)O)OC; X1 = C[C@@H](N*)[C@@H](O)c1ccccc1; NMeV = CN[C@H](C(=O)O)C(C)C
# What was measured:
# [1] = mice, assumed from reported plasma protein binding; cited from earlier work
# Description: Table 1 A glossary of literature-derived and estimated parameters used for the MMAE PBPK model. | column: Value || Each tissue compartment was further divided into the vascular, endothelial cell, interstitial, and cellular sub-compartments, and vascular space was divided into plasma and blood cells, as shown in Figure 1b. We aimed to make the sub-compartment division the same as our previously published platform antibody PBPK model, and thus, one can easily connect MMAE and an antibody PBPK model to build an ADC PBPK model. The rapid distribution of MMAE between plasma, endothelial cells, and interstitial space was assumed, and thus, the distribution rate between these compartments was set as a valu ... || Plasma protein binding plays a vital role in tissue distribution of small molecule drugs. […] Based on the reported mice data, fu,p was assumed to be 0.2, and it was used as a concentration-independent parameter in the PBPK model. Of note, species-dependence of fraction unbound should be considered when further scaling up the current MMAE PBPK model to different species. Based on free hormone hypothesis, it was assumed that ...
# [2] = cited from earlier work
# Description: The PK profile of MMAE in plasma dropped rapidly, while concentrations in tissues were retained for a prolonged period of time. This could be because of the binding of MMAE to its intracellular target, tubulin. […] Since plasma and tissue concentration profiles were not parallel, plasma exposure ...
# [3] = following free MMAE administration; cited from earlier work
# Description: Our results regarding the blood cell distribution of MMAE were not consistent with the literature. The MMAE blood-to-plasma ratio is reported to be 2 [4] and 1.53–8.65 [8] in different studies, following free MMAE administration. Whereas, a lower blood-to-plasma ratio has been observed when MMAE-conjugated ADCs were administrated.
# [4] = cited from earlier work; remark: listed apart in the source
# Experimental: There are some limitations of our study. First, only one dose level of MMAE was used to build the PBPK model. However, the current 0.1 mg/kg MMAE dose can be high enough to saturate the target, and thus, linear PK can be assumed. […] As more data at lower dose levels become available, the PBPK model can be further refined to elaborate the MMAE–tubulin interaction. Second, the PK profile of free M ...
# [5] = cited from earlier work; remark: listed apart in the source
# Experimental: The PBPK model well captured the PK in plasma, tissues, and tumor simultaneously. CLint was estimated with good precision (%CV = 8.92), and the optimized value was 137 mL/h. […] About 80% of MMAE excretes via feces, and only 6% excretes via urine. Therefore, we assumed that MMAE was eliminated only via metabolism and biliary/fecal excretion from the liver. […] For the derivation of CLint based on in vitro data, the CLint, vitro were estimated using human hepatocyte (3 µL/min/10^6 cells) and human ...
# tubulin = conditions: cited from earlier work
# Description: Table 1 A glossary of literature-derived and estimated parameters used for the MMAE PBPK model. | column: Value || Physiological parameters for mice were obtained from our previously published PBPK model. Radius of the tumor blood capillary ( Rcap ), average distance between two capillaries ( Rkrough ), tumor void volume for MMAE ( ε ), P, D, and efflux rate of MMAE from the cells ( kout ) were obtained from the literature.
# P-glycoprotein = conditions: cited from earlier work
# Description: Concentration data were not obtained for gastrointestinal tracts and thymus, and thus, an assumption was made when calculating KP values for these tissues based on the result of a quantitative whole-body autoradiography study of trastuzumab-vc-MMAE in rats. The study observed persistent MMAE radioactivity in tissues with rapidly dividing cells such as GI epithelia, bone marrow, spleen, and thymus. Accordingly, apparent KP in GI tracts and thymus were assumed to be the same as in spleen, and they were adjusted for the fractional cellular volume of each tissue. KP values were >1 in all tis ... || The PBPK model of MMAE presented here can further be used to assess drug–drug interactions of MMAE containing ADCs. In vivo and in vitro studies indicate that MMAE is a substrate of CYP3A and P-glycoprotein [34]. As such, the polymorphism of CYP3A and P-glycoprotein may affect the PK of MMAE, and consequently the efficacy and toxicity of MMAE-conjugated ADCs. As such, the MMAE PBPK model can serve as a tool to explore drug interactions of ADCs.
# [6] = cited from earlier work; remark: listed apart in the source
# Description: The PBPK model included 16 tissues and a tumor compartment, and all of them were connected via blood flow and arranged anatomically. The tissue compartments included blood, lung, heart, kidney, muscle, skin, liver, brain, adipose, thymus, bone, small intestine, large intestine, spleen, pancreas, and other (i.e., carcass). All the other tissues, except those mentioned, were lumped into the ‘other’ compartment. The arterial blood to each organ was delivered by the efferent blood supplied from the lung, which perfused to each organ and t ... || It is reported that the elimination (metabolism and excretion) of MMAE is mainly through CYP3A4-mediated metabolism, biliary/fecal excretion, or urinary excretion. About 80% of MMAE excretes via feces, and only 6% excretes via urine. Therefore, we assumed that MMAE was eliminated only via metabolism and biliary/fecal excretion from the liver. […] For the derivation of CLint based on in vitro data, the CLint, vitro were estimated using human hepatocyte (3 µL/min/10^6 cells) and human ...
# tumor cells = conditions: cited from earlier work
# Description: Table 1 A glossary of literature-derived and estimated parameters used for the MMAE PBPK model. | column: Value
# [7] = bile-duct cannulated rat; cited from earlier work
# Experimental: The scaling factors used were 135 ± 10 (10^6 cells/g) for hepatocytes and 41.9 ± 24.5 (mg/g) for microsome studies. Metabolic CL and non-metabolic (mostly biliary) CL were assumed to account for 40% and 60% of total CL. This assumption is based on a human mass balance study and a bile-duct cannulated rat study, which reported that ≈60% of MMAE is excreted unchanged in the bile. As such, the CLint extrapolated from in vitro study was 109–126 mL/min (hepatocyte) and 121–462 mL/min (microsome). The CLint approximated from our in vivo data was 146 mL/min using the convent ...
smiles,measurement,setting,value
"CC[C@H](C)[C@@H]([C@@H](CC(=O)N1CCC[C@H]1[C@H](OC)[C@@H](C)C(=O)N[C@H](C)[C@@H](O)c1ccccc1)OC)N(C)C(=O)[C@@H](NC(=O)[C@@H](NC)C(C)C)C(C)C [MMAE, Monomethyl auristatin E] (H-[NMeV]V[Dil][Dolaproine]-X1)","fu,p, fraction unbound in plasma",[1],0.8
same,"half-life of MMAE, reported value",[2],5.7 h
same,blood-to-plasma ratio,[3],2
same,dose that induced mortality,"[4]; rats, single dose",> 0.116 mg/kg
same,single-dose no-observed-adverse-effect level (NOAEL),[4]; rats,0.01 mg/kg
same,contribution of free MMAE to tissue total MMAE exposure following ADC administration,[4]; ref in-house data,< 20%
same,"in vitro CLint (CLint, vitro)",[5]; human liver hepatocyte,3 µL/min/10^6 cells
same,"in vitro CLint (CLint, vitro)",[5]; human liver microsome,24 µL/min/mg
same,"koff, first-order dissociation rate constant between MMAE–tubulin complex",tubulin; assumed,0.000151 s⁻¹
same,Kd,tubulin; read-out: equilibrium dissociation rate (KD) of MMAE for free tubulin,0.291 µM
same,substrate of P-glycoprotein,P-glycoprotein,substrate
same,excretion via feces,[6],About 80%
same,excretion via urine,[6],6%
same,renal excretion,[6],< 10%
same,"kout, first-order efflux rate of MMAE from intracellular to extracellular space",tumor cells,0.046 h⁻¹
same,"ε, tumor void volume for MMAE",tumor cells,0.44
same,"D, diffusion rate across the blood vessels",tumor cells; tumor,0.0104 cm^2/h
same,MMAE excreted unchanged in the bile,[7],≈ 60%
